Measured values published in patent US20070259439A1, “Determination of antibiotic concentration in bone” (Wyeth, priority 2006, published 2007).
Several values for one entry are separate records, joined by “and”; a condition that tells them apart may be missing. Equal values may be shown once.

What was measured:
[1] = system: Bacillus cereus ATCC 11778; assay: Verification of tigecycline microbiological activity (agar well diffusion bioassay); type: cell-based; settings: for Zone Size, Sample: n = 3
Procedure: Standard Curve Preparation: A stock solution of tigecycline standard powder, at a concentration of 1000 μg/ml, was prepared in normal saline. Dilutions were prepared in normal saline at a concentration range of 4, 2, 1 and 0.5, 0.25, and 0.125 μg/ml for the preparation of the standard curve. The internal standard (1 μg/ml) was also made from stock solution.
Preparation of Inoculum: An overnight trypticase soy agar blood plate culture (incubated at 30° C.) of Bacillus cereus ATCC 11778 was adjusted to a McFarland 0.5 standard in saline. This suspension yields a bacterial density of approximately 10^8 colony forming units (CFU)/ml.
Preparation of Bioassay Agar Plates: The agar medium was prepared by adding nutrient broth (8 g) and agarose (11 g or […]) per liter of distilled water. After autoclaving at 121° C. for 15 minutes, the medium was allowed to equilibrate to a temperature of 48-50° C. for approximately 1 hour in a water bath. The adjusted B. cereus culture was used to inoculate the cooled agar to a final concentration of 1% (1 ml/100 ml). A volume of 100 ml is added to a Nunc bioassay dish and the agar allowed to solidify at room temperature on a level surface. After cooling, wells were cut into the surface of the agar assay plate using a vacuum well cutting device. The standard curve and unknown samples were placed into the wells (50 μl) in a predetermined array with three wells each per concentration. An internal standard was also tested in triplicate. The pulverized bone samples (and standards for that experiment) were overlaid with 1.1% agarose (50 μl) to maintain contact with the seeded agar. The plates were pre-diffused at 4° C. for two hours, then incubated at 30° C. for 18-24 hours.
Determination of antibiotic concentrations in IncRB samples: The diameters of the zones of inhibition for standards and samples were measured using electronic calipers. The concentrations of the standard curve were then plotted on a semilogarithmic scale vs their corresponding zone diameters to give a standard regression curve. The concentrations of the samples and internal standard were determined by comparing the mean zone size of the samples to the zone sizes of the standard curve and their corresponding concentration. A bioassay data analysis program was used to perform the calculations and plots.

[2] = 54-hour autosampler stability of extracted tigecycline from incurred human bone with ascorbic acid; type: physicochemical; settings: ascorbic acid added
Procedure: (§1) Stability tests for tigecycline in IncRB reference QC samples or incHB QC samples were conducted in 4 cycles of freeze/thaw for IncRB QC and (3 cycles for IncHB QC of −70° C./22° C.) and in standard bench top (22° C.) stability (4 hours for rat bone and 6 hours for human bone) tests. These tests occurred during sequential extraction from run 1 through run 3. Bench top stability of IncRB reference QC samples (4 hours at room temperature) and incurred human bone sample (6 hours at room temperature), and extracted tigecycline from the IncRB and incurred human reference QC samples in the autosampler at 4° C. were evaluated during the method validation. Autosampler stability of tigecycline in IncRB Group B sample (^14C) was employed as the sample pool because aliquots from IncRB Group A were exhausted from prior testing. Results were plotted as the peak area ratio against time. The 54-hour autosampler stability of incurred human bone was performed by comparing extracted samples injected immediate after extraction (baseline) with the same set of extracted samples re-injected after 54 hours of storage at 4° C., regressed with a standard curve injected immediately after extraction (baseline).

[3] = Stability of tigecycline in incurred rat bone and in extracted rat bone sample; type: physicochemical
Procedure: as §1

[4] = Bone Extract (non-neutralized) (pH 1.7), IncRB Group B

SMILES: CN(C)c1cc(NC(=O)CNC(C)(C)C)c(O)c2c1C[C@H]1C[C@H]3[C@H](N(C)C)C(O)=C(C(N)=O)C(=O)[C@@]3(O)C(O)=C1C2=O [tigecycline, Tigecycline]
- Zone Size, Sample minus diluent [1, 4]: 11.8 mm
- Zone Size, Sample [1, 4]: 33.3 mm
- Zone Size, Sample minus diluent ([1]; Neutralized Bone Extract A (pH 7.0)): 0 mm
- Zone Size, Sample ([1]; Neutralized Bone Extract A (pH 7.0), neutralization prior to methanol evaporation): 0 mm
- Zone Size, Sample minus diluent ([1]; Neutralized Bone Extract B (pH 7.0)): 0 mm
- Zone Size, Sample ([1]; Neutralized Bone Extract B (pH 7.0), neutralization after methanol evaporation): 0 mm
- % Difference (54 hours vs initial) ([2]; 54 hours at 4° C.): −0.7%
- Initial Concentration immediately after extraction (replicates) ([2]; incurred human bone): 261 and 258 and 270 and 269 and 218
- Re-injected sample concentration after 54-hour at 4° C. (replicates) ([2]; incurred human bone): 288 and 250 and 227 and 277 and 223
- Initial Concentration immediately after extraction, Mean ([2]; n = 5, incurred human bone): 255
- Re-injected sample concentration after 54-hour at 4° C., Mean ([2]; n = 5, incurred human bone): 253
- Freeze/thaw stability in incurred rat bone ([3]; after 4 cycles of freeze/thaw (−70° C./22° C.)): stable
- Bench top stability in incurred rat bone ([3]; after 4 hours at room temperature): stable
- Stability of extracted tigecycline from IncRB samples ([3]; extracted sample at 4° C., no stabilizing agent): 8.5 h
- Storage stability in incurred rat bone ([3]; stored at −70° C.): at least 5 months
- Re-injection stability of extracted tigecycline ([3]; within 5 hours, no stabilizing agent): 5 re-injections
